Laboratory results as given in PubChem BioAssay (NCI).
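Grown in 96-well plates, cells were treated for 48 hours with each compound at five concentrations. Insufficient inhibition: endpoint recorded as highest concentration tested. The concentration for 50% growth inhibition is given as GI50. TGI denotes the concentration required for complete inhibition of growth.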

Key:
Test in all cases: DTP human tumour cell line panel, 48 h; in the data active means GI50 below about 0.43 µM; inactive means the rest
NCI-H460 lung = test system: NCI-H460 lung
LOX IMVI melanoma = test system: LOX IMVI melanoma
U251 CNS = test system: U251 CNS
CAKI-1 renal = test system: CAKI-1 renal
786-0 renal = test system: 786-0 renal
UACC-257 melanoma = test system: UACC-257 melanoma
NCI-H23 lung = test system: NCI-H23 lung
SNB-75 CNS = test system: SNB-75 CNS
DU-145 prostate = test system: DU-145 prostate
OVCAR-5 ovarian = test system: OVCAR-5 ovarian
RPMI-8226 leukemia = test system: RPMI-8226 leukemia
SK-MEL-2 melanoma = test system: SK-MEL-2 melanoma
RXF 393 renal = test system: RXF 393 renal
SF-295 CNS = test system: SF-295 CNS
KM12 colon = test system: KM12 colon
SR leukemia = test system: SR leukemia
IGROV1 ovarian = test system: IGROV1 ovarian
MOLT-4 leukemia = test system: MOLT-4 leukemia
SK-OV-3 ovarian = test system: SK-OV-3 ovarian
NCI-H522 lung = test system: NCI-H522 lung
PC-3 prostate = test system: PC-3 prostate
M14 melanoma = test system: M14 melanoma
CCRF-CEM leukemia = test system: CCRF-CEM leukemia
EKVX NSCLC = test system: EKVX NSCLC
SF-268 CNS = test system: SF-268 CNS
MCF7 breast = test system: MCF7 breast
HOP-92 NSCLC = test system: HOP-92 NSCLC
TK-10 renal = test system: TK-10 renal
OVCAR-3 ovarian = test system: OVCAR-3 ovarian
SK-MEL-5 melanoma = test system: SK-MEL-5 melanoma
HL-60(TB) leukemia = test system: HL-60(TB) leukemia
HCC-2998 colon = test system: HCC-2998 colon
SW-620 colon = test system: SW-620 colon
OVCAR-4 ovarian = test system: OVCAR-4 ovarian
MDA-MB-435 = test system: MDA-MB-435
NCI-H226 lung = test system: NCI-H226 lung
SF-539 CNS = test system: SF-539 CNS
MDA-MB-231 breast = test system: MDA-MB-231 breast
UACC-62 melanoma = test system: UACC-62 melanoma
HS 578T breast = test system: HS 578T breast
A498 renal = test system: A498 renal
HOP-62 NSCLC = test system: HOP-62 NSCLC
K-562 leukemia = test system: K-562 leukemia
HCT-116 colon = test system: HCT-116 colon
T-47D breast = test system: T-47D breast
MALME-3M melanoma = test system: MALME-3M melanoma
SK-MEL-28 melanoma = test system: SK-MEL-28 melanoma
ACHN renal = test system: ACHN renal
BT-549 breast = test system: BT-549 breast
UO-31 renal = test system: UO-31 renal
SNB-19 CNS = test system: SNB-19 CNS
OVCAR-8 ovarian = test system: OVCAR-8 ovarian
HCT-15 colon = test system: HCT-15 colon
SN12C renal = test system: SN12C renal
NCI/ADR-RES ovarian = test system: NCI/ADR-RES ovarian
A549 NSCLC = test system: A549 NSCLC
HT29 colon = test system: HT29 colon
COLO 205 colon = test system: COLO 205 colon

COc1ccc(OC)c(Nc2nc3ccccc3c3c2-c2ccc(OC)cc2C3=O)c1
inactive: GI50 (NCI-H460 lung) > 100 µM | GI50 (LOX IMVI melanoma) > 100 µM | GI50 (U251 CNS) > 100 µM | GI50 (CAKI-1 renal) > 100 µM | GI50 (786-0 renal) > 100 µM | GI50 (UACC-257 melanoma) > 100 µM | GI50 (NCI-H23 lung) > 100 µM | GI50 (SNB-75 CNS) > 100 µM | GI50 (DU-145 prostate) > 100 µM | GI50 (OVCAR-5 ovarian) > 100 µM | GI50 (RPMI-8226 leukemia) > 100 µM | GI50 (SK-MEL-2 melanoma) > 100 µM | GI50 (RXF 393 renal) > 100 µM | GI50 (SF-295 CNS) > 100 µM | GI50 (KM12 colon) > 100 µM | GI50 (SR leukemia) 40.7 µM | GI50 (IGROV1 ovarian) > 100 µM | GI50 (MOLT-4 leukemia) > 100 µM | GI50 (SK-OV-3 ovarian) > 100 µM | GI50 (NCI-H522 lung) > 100 µM | GI50 (PC-3 prostate) > 100 µM | GI50 (M14 melanoma) > 100 µM | GI50 (CCRF-CEM leukemia) > 100 µM | GI50 (EKVX NSCLC) > 100 µM | GI50 (SF-268 CNS) > 100 µM | GI50 (MCF7 breast) > 100 µM | GI50 (HOP-92 NSCLC) > 100 µM | GI50 (TK-10 renal) > 100 µM | GI50 (OVCAR-3 ovarian) > 100 µM | GI50 (SK-MEL-5 melanoma) > 100 µM | GI50 (HL-60(TB) leukemia) > 100 µM | GI50 (HCC-2998 colon) > 100 µM | GI50 (SW-620 colon) > 100 µM | GI50 (OVCAR-4 ovarian) > 100 µM | GI50 (MDA-MB-435) > 100 µM | GI50 (NCI-H226 lung) > 100 µM | GI50 (SF-539 CNS) > 100 µM | GI50 (MDA-MB-231 breast) > 100 µM | GI50 (UACC-62 melanoma) > 100 µM | GI50 (HS 578T breast) > 100 µM | GI50 (A498 renal) > 100 µM | GI50 (HOP-62 NSCLC) > 100 µM | GI50 (K-562 leukemia) > 100 µM | GI50 (HCT-116 colon) > 100 µM | GI50 (T-47D breast) > 100 µM | GI50 (MALME-3M melanoma) > 100 µM | GI50 (SK-MEL-28 melanoma) > 100 µM | GI50 (ACHN renal) > 100 µM | GI50 (BT-549 breast) > 100 µM | GI50 (UO-31 renal) > 100 µM | GI50 (SNB-19 CNS) > 100 µM | GI50 (OVCAR-8 ovarian) > 100 µM | GI50 (HCT-15 colon) > 100 µM | GI50 (SN12C renal) > 100 µM | GI50 (NCI/ADR-RES ovarian) > 100 µM | GI50 (A549 NSCLC) > 100 µM | GI50 (HT29 colon) > 100 µM | GI50 (COLO 205 colon) > 100 µM
> 100 µM: TGI (NCI-H460 lung) | TGI (LOX IMVI melanoma) | TGI (U251 CNS) | TGI (CAKI-1 renal) | TGI (786-0 renal) | TGI (UACC-257 melanoma) | TGI (NCI-H23 lung) | TGI (SNB-75 CNS) | TGI (DU-145 prostate) | TGI (OVCAR-5 ovarian) | TGI (RPMI-8226 leukemia) | TGI (SK-MEL-2 melanoma) | TGI (RXF 393 renal) | TGI (SF-295 CNS) | TGI (KM12 colon) | TGI (SR leukemia) | TGI (IGROV1 ovarian) | TGI (MOLT-4 leukemia) | TGI (SK-OV-3 ovarian) | TGI (NCI-H522 lung) | TGI (PC-3 prostate) | TGI (M14 melanoma) | TGI (CCRF-CEM leukemia) | TGI (EKVX NSCLC) | TGI (SF-268 CNS) | TGI (MCF7 breast) | TGI (HOP-92 NSCLC) | TGI (TK-10 renal) | TGI (OVCAR-3 ovarian) | TGI (SK-MEL-5 melanoma) | TGI (HL-60(TB) leukemia) | TGI (HCC-2998 colon) | TGI (SW-620 colon) | TGI (OVCAR-4 ovarian) | TGI (MDA-MB-435) | TGI (NCI-H226 lung) | TGI (SF-539 CNS) | TGI (MDA-MB-231 breast) | TGI (UACC-62 melanoma) | TGI (HS 578T breast) | TGI (A498 renal) | TGI (HOP-62 NSCLC) | TGI (K-562 leukemia) | TGI (HCT-116 colon) | TGI (T-47D breast) | TGI (MALME-3M melanoma) | TGI (SK-MEL-28 melanoma) | TGI (ACHN renal) | TGI (BT-549 breast) | TGI (UO-31 renal) | TGI (SNB-19 CNS) | TGI (OVCAR-8 ovarian) | TGI (HCT-15 colon) | TGI (SN12C renal) | TGI (NCI/ADR-RES ovarian) | TGI (A549 NSCLC) | TGI (HT29 colon) | TGI (COLO 205 colon)

CCOC(=O)/C=C\[C@H]1OC(C)(C)O[C@H]1[C@H](O)[C@H]1COC(C)(C)O1
41.7 µM: TGI (MALME-3M melanoma)
62.4 µM: TGI (HL-60(TB) leukemia)
42.3 µM: TGI (RPMI-8226 leukemia)
29.7 µM: TGI (NCI-H522 lung)
39.9 µM: TGI (LOX IMVI melanoma)
44.7 µM: TGI (K-562 leukemia)
39 µM: TGI (CCRF-CEM leukemia) | TGI (HCT-116 colon)
50.1 µM: TGI (NCI-H23 lung) | TGI (EKVX NSCLC)
35.6 µM: TGI (SK-MEL-28 melanoma)
32.2 µM: TGI (OVCAR-3 ovarian)
7.88 µM: TGI (CAKI-1 renal)
40.5 µM: TGI (MOLT-4 leukemia)
32.6 µM: TGI (U251 CNS) | TGI (OVCAR-5 ovarian) | TGI (ACHN renal)
46.5 µM: TGI (OVCAR-4 ovarian)
36.8 µM: TGI (SW-620 colon)
55.5 µM: TGI (UACC-257 melanoma)
33.9 µM: TGI (MDA-MB-231 breast)
35 µM: TGI (RXF 393 renal) | TGI (MDA-MB-435)
31.3 µM: TGI (HOP-92 NSCLC)
33.5 µM: TGI (SK-MEL-5 melanoma) | TGI (SN12C renal)
42.2 µM: TGI (BT-549 breast)
39.2 µM: TGI (786-0 renal)
46.7 µM: TGI (T-47D breast)
13.3 µM: TGI (SNB-75 CNS)
32.3 µM: TGI (COLO 205 colon)
72.6 µM: TGI (SF-268 CNS)
32.1 µM: TGI (SF-539 CNS)
37.6 µM: TGI (PC-3 prostate) | TGI (A498 renal)
33 µM: TGI (M14 melanoma)
52.4 µM: TGI (SK-MEL-2 melanoma)
46.1 µM: TGI (HT29 colon)
33.1 µM: TGI (HCT-15 colon)
37.2 µM: TGI (SR leukemia)
34.4 µM: TGI (UO-31 renal)
30.8 µM: TGI (TK-10 renal)
60.7 µM: TGI (UACC-62 melanoma)
93.2 µM: TGI (HS 578T breast)
37.7 µM: TGI (IGROV1 ovarian)
28.6 µM: TGI (HCC-2998 colon)
> 100 µM: TGI (NCI-H460 lung) | TGI (DU-145 prostate) | TGI (SF-295 CNS) | TGI (KM12 colon) | TGI (SK-OV-3 ovarian) | TGI (NCI-H226 lung) | TGI (HOP-62 NSCLC) | TGI (SNB-19 CNS) | TGI (OVCAR-8 ovarian) | TGI (NCI/ADR-RES ovarian) | TGI (A549 NSCLC)
40.7 µM: TGI (MCF7 breast)
